Reference: US6559125B1, “Polyamide-alkylator conjugates and related products and method” (priority 2000, dated 2003)

Key:
[1] = tested on: 3′ and 5′ 32P labeled 241 base pair restriction fragments containing the HIV-1 promoter; assay: Thermal cleavage assay (heat-induced single-strand DNA cleavage); format: biochemical
Procedure: Storage phosphor autodiograms of 8% denaturing polyacrylamide gels used to separate the fragments generated by heat induced DNA cleavage at alkylation sites. All reactions contained 10,000 cpm restriction fragment, 10 mM Tris.HCl (pH 7.0), 10 mM KCl, 10 mM MgCl and 5 mM CaCl and were performed at 37° C. Following 24 hour of equilibration, the DNA pellet was resuspended in sodium citrate buffer (pH=7.2) and heated to 90° C. for 15 min to thermally cleave at sites of adenine- or guanine-N3 lesions. (a) 5′-^32P-end-labeled restriction fragment (SEQ ID NO:5). (b) 3′-^32P-end-labeled restriction fragment. (a-b) Lane 1, intact DNA; lane 2, A-specific reaction; lane 3, G-specific reaction; lanes 5-13, […], respectively. (b) Lane 14, 10 μM CHL-Dp (5). Center, alkylation sites on the DNA fragment, indicate by arrows. Sites 5′-TCGTCGACGA-3′ (SEQ ID NO:20) (A), 5′-ACGTCGA-3′ (B), and 5′-ACGTCGA-3′ (E) are match sites and 5′-ACATCTT-3′ (C) and 5′-TCGTCAG-3′ (D) are double base pair mismatches (mismatches indicated by gray boxes).
Storage phosphor autodiogram of 8% denaturing polyacrylamide gels used to separate the fragments generated by heat induced DNA cleavage at alkylation sites. All reactions contained 10,000 cpm restriction fragment, 10 mM Tris.HCl (pH 7.0), 10 mM KCl, 10 mM MgCl2 and 5 mM CaCl2 and were performed at 37° C. Following of equilibrations of 10 minutes-24 hours, the DNA pellet was resuspended in sodium citrate buffer (pH=7.2) and heated to 90° C. for 15 min to thermally cleave at sites of adenine- or guanine-N3 lesions. Lane 1, intact DNA; lane 2, A-specific reaction; lane 3, G-specific reaction; lanes 4-11, 500 pM ImPy-β-ImPy-(R)^CHLγ-ImPy-β-ImPy-β-Dp (2), equilibrations for 10 min, 20 min, 30 min, 1 h, 2 h, 4 h, 12 h, 24 h, respectively. Right. models bound to match sites on the DNA fragment (SEQ ID NO:15). The polyamide is colored as in FIG. 7. The solid arrows indicate cleavage bands from cleavage sites of adenine- or guanine-N3 lesions on the restriction fragment.
All reactions were executed in a total volume of 40 μl. A polyamide stock solution or H2O was added to an assay buffer containing radiolabeled restriction fragment (10,000 cpm), affording final solution conditions of 10 mM Tris.HCl, 10 mM KCl, 10 mM MgCl2, 5 mM CaCl2, pH 7.0, and either 1 pM-10 nM nitrogen mustard-polyamide conjugate or no conjugate (for reference lanes). The solutions were equilibrated at 37° C. for the desired time period. The reactions were stopped by the addition of 60 μl of a solution containing 0.6 M NaOAc, 12.5 mM EDTA, 0.15 mM (bp) calf thymus DNA, 2.0 M NaCl, 0.8 mg/ml glycogen, and ethanol precipitated. Reactions were resuspended in 40 μl […] sodium citrate buffer, pH 7.2, and heated for […] The reactions were ethanol precipitated and resuspended in 1×TBE/80% formamide loading buffer, denatured by heating at 85° C. for 10 minutes, and placed on ice. The reaction products were separated by electrophoresis on an 8% polyacrylamide gel (5% cross-link, 7 M urea) in 1×TBE at 2000 V. Gels were dried and exposed to a storage phosphor screen (Molecular Dynamics) [Johnston, R. F., Pickett, S. C. & Barker, D. L. (1990). Autoradiography using storage phosphor technology. Electrophoresis 11, 355-360].

[2] = tested on: 5′-end labeled and 3′-end labeled 277 base pair restriction fragment; assay: Thermally induced strand cleavage by seco-CBI conjugates; format: biochemical; settings: for concentration range of alkylation by CBI control compounds: FIG. 17, 1 μM and 10 μM, 12 H, 37° C.
Procedure: Storage phosphor autoradiograms of 8% denaturing polyacrylamide gels used to separate the fragments generated by heat induced DNA cleavage at alkylation sites. All lanes contain 10 kcpm of either 5′ or 3′ radiolabeled DNA. Each reaction was equilibrated in TE, pH 7.5 at 37° C. for 12 H. The unbound polyamide was removed by precipitation, and then strand cleavage was induced by heating at 95° C. for 30 min. (a) 5′-^32P-end labeled restriction fragment (SEQ ID NO:18). (b) 3′-^32P-end labeled restriction fragment. (a-b) lanes 1 and 14, intact DNA; lanes 2-11, 15-24, 1 pM, 2 pM, 5 pM, 10 pM, 20 pM, 50 pM, 100 pM, 200 pM, 500 pM, 1 nM respectively of the corresponding polyamide; lanes 12 and 25, A-specific reaction; lanes 13 and 26, G-specific reaction. (a-b) Ball-and-stick models of polyamides bound to match and mismatch sites on the DNA fragment. Match sites 5′-TGGTCA-3′ and 5′-AGGACT-3′ and single base pair mismatch site 5′-AGGAGT-3′ are indicated in bold on the sequence, with arrows indicating cleavage bands. The polyamide is colored as in FIG. 10, with the bold triangle representing (R)-CBI.
Storage phosphor autoradiograms of 8% denaturing polyacrylamide gels used to separate the fragments generated by heat induced DNA cleavage at alkylation sites. All lanes contain 10 kcpm of either 5′ or 3′ radiolabeled DNA. Each reaction was equilibrated in TE, pH 7.5 at 37° C. from 0 to 10 hours. The unbound polyamide was removed by precipitation, and then strand cleavage was induced by heating at 95° C. for 30 min. (a) 5′-^32P-end labeled restriction fragment (SEQ ID NO: 18). (b) 3′-^32P-end labeled restriction fragment. (a-b) lanes 1 and 11, intact DNA; lanes 2-8, 1 nM of corresponding polyamide, equilibrations for 0, 15 minutes, 30 minutes, 1 hour, 2 hours, 5 hours, and 10 hours, respectively; lanes 9 and 19, A-specific reaction; lanes 10 and 20, G-specific reaction. (a-b) Ball-and-stick models of polyamides bound to match and mismatch sites on the DNA fragment. Match sites 5′-TGGTCA-3′ and 5′-AGGACT-3′ and single base pair mismatch site 5′-AGGAGT-3′ are indicated in bold on the sequence, with arrows indicating cleavage bands. The polyamide is colored as in FIG. 10, with the bold triangle representing (R)-CBI.
Storage phosphor autoradiograms of 8% denaturing polyacrylamide gels used to separate the fragments generated by heat induced DNA cleavage at alkylation sites. All lanes contain 10 kcpm of either 5′ or 3′ radiolabeled DNA. Each reaction was equilibrated in TE, pH 7.5 at 37° C. for 12 H. The unbound polyamide or agent was removed by precipitation, and then strand cleavage was induced by heating at 95° C. for 30 min. (a) 5′-^32P-end labeled restriction fragment. (b) 3′-^32P-end labeled restriction fragment. (a-b) Lane 1, intact DNA; lane 2, 1R, 1 nM; lane 3 1S, 1 nM; lanes 4-5, 2R, 1 μM and 10 μM, respectively; lanes 6-7, 2S, 1 μM and 10 μM, respectively; lane 8, A-specific reaction; lane 9, G-specific reaction.
All reactions were carried out in a volume of 50 μl. A polyamide or seco-CBI-dimethyl gaba stock solution or water (for reference lane) was added to an assay buffer of TE (pH7.5) and […] of 3′- or 5′-radiolabeled DNA. The solutions were allowed to equilibrate for 12 hours or the appropriate time (for time course reactions) at 37° C. The reactions were stopped with 60 μl of a solution containing NaOAc (600 mM), EDTA pH 8.0 (12.5 mM), calf thymus DNA (150 μM base pair), glycogen (0.8 mg mL^−1), and NaCl (2 M). Ethanol was added to remove unbound polyamide and precipitate the products. The reactions were resuspended in 20 μl of TE (pH 7.5) and cleavage was initiated by heating at 95° C. for 30 minutes. The cleavage products were precipitated with 150 μl ethanol and then resuspended in 100 mM trisborate-EDTA/80% formamide loading buffer, and denatured and loaded onto polyacrylamide gels as previously reported. The gels were quantitated by the use of storage phosphor technology. […]

With `CN(C)CCCNC(=O)CCCc1ccc(N(CCCl)CCCl)cc1` [compound 4, 4-{4-[bis (2-chloroethyl)amino]phenyl}-N-[3-(dimethylamino)propyl]butanamide] the “cleavage by freely diffusing alkylator” value ([1]; 10 μM concentration) was “no cleavage”.
“(R)-Seco-CBI-β-alanine-(dimethyl)-β-aminobutyric acid [2R]” was tested, and the “concentration range of alkylation by CBI control compounds” value [2] was “alkylate only at micromolar concentrations”.
“(S)-Seco-CBI-β-alanine-(dimethyl)-γ-aminobutyric acid [2S]” was tested, and the “concentration range of alkylation by CBI control compounds” value [2] was “alkylate only at micromolar concentrations”.
In the case of “ImImPyPy-(R)^(R)-CBIγ-ImPyPyPy-β-Dp [conjugate 1R]”, the “alkylation efficiency and rate compared with the other enantiomer conjugate” value [2] is reported as “higher alkylation efficiency and faster rates of alkylation than 1S”, the “alkylation on the 5′-labeled strand” value [2] is reported as “no alkylation” and the site of alkylation [2] is reported as “alkylation at the site which includes a match site for the polyamide”.
“ImImPyPy-(R)^(S)-CBIγ-ImPyPyPy-β-Dp [conjugate 1S]” was tested, and the site of alkylation [2] was “alkylates adjacent to a match site”.
With “ImPy-β-ImPy-(R)^CHLγ-ImPy-β-ImPy-β-Dp [conjugate 2]” the “concentration at which minor cleavage was observed proximal to double base pair mismatch sites” value [1] was “greater than 1 nM”, the “specificity for reaction at match sites over mismatch sites” value [1] was “approximately 20 fold” and the “earliest time at which cleavage was detectable” value ([1]; 0.5 nM, pH 7.0, 37° C.) was 10 min. For the same compound, the “final cleavage yield on the bottom strand” value ([1]; 0.5 nM, pH 7.0, 37° C., 24 hours) was 45%, the “time at which alkylation was half completed at match sites” value ([1]; 0.5 nM, pH 7.0, 37° C., monitored for 24 hours) was 2.2 h and the “cleavage on one strand (bottom strand)” value ([1]; 10 nM concentration, 37° C.) was “quantitative cleavage”. The “alkylation at subnanomolar concentrations” value ([1]; subnanomolar concentrations) was “high yield”.
